Consider three molecules from patent US20100152140A1, “Method of Cancer Treatment with Naphthol Analogs” (priority 2007, published 2010).

Data set [1] deals with H1734 cells. Briefly: MTT viability, protection from Ro-31-8220 induced cytotoxicity. As to conditions: H1734, inhibitor 2 h then 20 μM Ro-31-8220, 24 h. The class given is cell-based, human. On the procedure: (§1) The cytotoxic activity of Ro-31-8220 was also determined against the all four NSCLC cells and NHTBE cells. Briefly, the cells (2,000/well) were incubated in triplicate in 96-well plates in the presence or absence of indicated test samples in a final volume of 0.2 ml for different days at 37° C. Afterwards, we performed the MTT assay.

Data set [2] concerns NSCLC cells (H1734, H226, A549, H292). Briefly: MTT assay, NSCLC cell lines. The class given is cell-based, human. On the procedure: as §1
For the next data set, the system named is CREB. Nature of the data set: Western blot of p-CREB (CREB activation) in H1734 cells. The class given is cell-based, human. The following applies: serum free media, time course and various concentrations for 4 h. On the procedure: (§2) Western Blot Analysis. Protein extracts from each of NSCLC cells and the NHTBE cells, were prepared by lysing the cells in SDS lysis buffer (250 mM Tris-Cl, pH 6.5, 2% SDS, 4% β-mercaptoethanol, 0.02% bromophenol blue, 10% glycerol) containing protease and phosphatase inhibitors. Standard SDS-PAGE and Western blotting procedures were used to analyze the cell extracts. Nitrocellulose blots were probed with anti-CREB and anti-phospho-specific pSer-133 CREB (Upstate Biotechnology, Waltham, Mass.); anti-Bcl-2, anti-Bcl-XL, anti-phospho-Erk1/2, and anti-Erk1/2 (Santa Cruz Biotechnology, Santa Cruz, Calif.); and anti-phospho-Rsk and anti-Rsk (Cell Signaling Technology, Cambridge, Mass.). To detect the cleavage products of apoptosis, nitrocellulose blots were probed with anti-poly (ADP-ribose) polymerase (PARP), anti-caspase-9, and anti-caspase-3 antibodies (New England Biolabs, Beverly, Mass.). Anti-actin antibodies were purchased from Sigma-Aldrich (St. Louis, Mo.) and the caspase-3 inhibitor Ac-DEVD-CHO was obtained from Promega (Madison, Wis.).
On the technique in general: Immunoblotting shows a protein as a band on a membrane.

Data set [3] has as its system CRE consensus oligonucleotide binding. Briefly: EMSA of CRE consensus oligonucleotide binding, H1734 nuclear extracts. The format is cell-based, human. As to conditions: serum free media. As to the method:
Electrophoretic Mobility Shift Assay. Isolation of nuclear extracts, sequences, preparation of oligonucleotide probes, electrophoretic mobility shift assay (EMSA) was conducted as previously described (19).
On the technique in general: A gel shift assay detects complexes by their altered migration in electrophoresis.

A further data set concerns pCREB. Nature of the data set: Immunocytochemistry for pCREB localization in H1734 cells. The class given is cell-based, human. The following applies: 20 μM, 4 h, serum free media. As to the method:
Immunocytochemistry for CREB Localization. H1734 cells (1×10^5 cells/ml) were plated on a glass chamber slide (Falcon; BD Biosciences, San Jose, Calif.) for adherence and treated the next day for 4 h with Ro-31-8220. The chambers were removed, and cells were fixed with cold acetone. After a brief washing in PBS, the slides were blocked with 5% normal goat serum in PBS for 1 h and then incubated for 4 h with rabbit polyclonal anti-pCREB antibody (dilution, 1:100). The slides were washed, incubated with goat anti-rabbit IgG-Alexa 594 (Molecular Probes, Eugene, Oreg.) (dilution 1:100) for 1 h, and counter-stained for nuclei with 4′,6-diamidino-2-phenylindole, dihydrochloride (DAPI; 50 ng/ml) (Molecular Probes, Eugene, Oreg.) for 15 min. The slides were mounted with a mounting medium (Sigma-Aldrich), and confocal images were captured with an Olympus FV500 confocal microscope (NY) by using a Plan Apo 60× oil objective.

A further data set concerns phospho-Rsk. Nature of the data set: Western blot of phospho-Rsk in H1734 cells. The class given is cell-based, human. As to conditions: serum free media. As to the method: as §2
The test system of the next data set is phospho-Erk1/2. Briefly: Western blot of phospho-Erk1/2 in H1734 cells. The format is cell-based, human. As to the method:
as §2

Another data set has as its system NHTBE cells. Briefly: MTT assay, NHTBE cells. The class given is cell-based, human. The following applies: NHTBE cells compared with NSCLC cells. On the procedure: as §1
For orientation: Tetrazolium dyes change colour on reduction, which living cells bring about.

Data set [4] has as its system H1734 cells. Nature of the data set: Flow cytometric cell cycle analysis. The class given is cell-based, human. The following applies: H1734, 10 μM. On the procedure: Flow Cytometric Analysis. H1734 cells were first synchronized by serum starvation overnight and then exposed to Ro-31-8220 for different lengths of time in the presence of 5% serum. The cells were washed, trypsinized, and fixed in 70% ethanol for 1 h at −20° C. Finally, cells were washed with PBS, resuspended, and stained in PBS containing 25 μg of propidium iodide and 1 μg/ml RNAase a for 30 min at room temperature. The distribution of cells during the cell cycle was then analyzed with a Facscalibur flow cytometer (Becton Dickinson, Bedford, Mass.).

The test system of data set [5] is H1734 cells. Nature of the data set: Western blot of apoptosis cleavage products (PARP, caspase-9, caspase-3). The class given is cell-based, human. As to the method: as §2
Data set [6] relates to H1734 cells. Briefly: Soft agar colony assay, H1734. The class given is cell-based, human. As to conditions: H1734, 2 μM, 28 days. As to the method: (§3) Soft Agar Colony Assay. Single-cell suspensions of the H1734 and H226 cells were treated with or without different concentrations of Ro-31-8220 and then mixed with agarose to a final concentration of 0.35%. Aliquots of 1.5 ml containing 10^4 cells and 10% fetal calf serum were plated in triplicate in six-well plates over a base layer of 0.7% agarose and allowed to gel. The number of colonies that were greater than 60 μm was counted after 28 days of incubation.

In another data set the test system is H226 cells. Nature of the data set: Soft agar colony assay, H226. As to conditions: H226, 2 μM, 28 days. The format is cell-based, human. As to the method:
as §3

The subject of data set [7] is H1734 cells. Briefly: TUNEL apoptosis assay. The class given is cell-based, human. As to conditions: H1734, 5 μM, 48 h. As to the method: Apoptosis Assay. H1734 cells (200,000) were plated in chamber slides; the next day, transfected with CREBwt, KCREB, and CREB133 DNA (100 ng/chamber), and with 100 nM siCREB. The terminal transferase dUTP nick end labeling (TUNEL) assay was performed according to the manufacturer's instructions (Promega). Briefly, the cells were fixed after 48 h of transfection in 4% formaldehyde and permeabilized with 0.5% Triton-X-100. The cells were incubated on the slides with terminal deoxynucleotidyl transferase and fluorescein-dUTP. They were then co-stained with DAPI and visualized with an Axioskop 40 fluorescence microscope (Carl Zeiss, Thornwood, N.Y.). Three fields were randomly counted for each sample. The images were captured at a magnification of 400× and stored using Axiovision software (Carl Zeiss), as described in the instructions provided by the manufacturer.

The test system of data set [8] is U937 human leukemia cells. As to conditions: cited from earlier work.
A further data set deals with interleukin-6. As to conditions: human cord blood-derived mast cells, mouse bone marrow-derived mast cells; cited from earlier work.
Data set [9] relates to nuclear transcription factor kappa B-dependent transcription. The following applies: pulmonary A549 cells; cited from earlier work.

For the molecule `CC(=O)N[C@@H](CC(=O)O)C(=O)N[C@@H](CCC(=O)O)C(=O)N[C@H](C(=O)N[C@H](C=O)CC(=O)O)C(C)C` [Ac-DEVD-CHO], the “protection from Ro-31-8220 induced cytotoxicity” value in the data set on H1734 cells [1] is given as “protected the cells”.

On to `O=S(=O)(NCCNC/C=C/c1ccc(Br)cc1)c1cccc2cnccc12` [H-89], for which, in [2] (compared with Ro-31-8220), the “cell growth of NSCLC cell lines” value is on record as “not significantly inhibiting the cell growth”.

`Cn1cc(C2=C(c3cn(CCCSC(=N)N)c4ccccc34)C(=O)NC2=O)c2ccccc21` [Ro-31-8220, 2-{1-[3-(Amidinothio)propyl]-1H-indol-3-yl}-3-(1-methylindol-3-yl)maleimide]: the “CREB activation (p-CREB)” value in the data set on CREB was “substantially suppressed”. In addition, the “CRE consensus oligonucleotide binding” value in [3] was “suppressed in a time dependent and dose dependent manner”. For the same molecule, the “nuclear pCREB localization” value in the data set with pCREB is “induced the nuclear disappearance of pCREB”. Also, the “concentration at which decrease of phospho-Rsk began” value with phospho-Rsk (4 h) came out at 5 µM. Moreover, in the data set with phospho-Rsk, the “time to suppression of phospho-Rsk” value is listed as not above 2 h. In addition, in the data set with phospho-Erk1/2, the “time to start of decrease of phospho-Erk1/2 expression” value is given as not above 30 min. In addition, in the data set on phospho-Erk1/2 (4 h), the “concentration at which decrease of phospho-Erk1/2 began” value stood at 5 µM. In [2] (all four NSCLC cell lines, dose-dependent), the “mitochondrial activity (MTT), cell growth” value is given as “suppressed mitochondrial activity”. In addition, the “suppression of mitochondrial activity (MTT)” value with NHTBE cells is recorded as “significantly less than that in the NSCLC cells”. For the same molecule, the “percentage of cells in the G2 phase” value in the data set on H1734 cells [4] (6 h, controls 18%) amounted to 24.5%. The “percentage of cells in G2 phase” value in the data set on H1734 cells [4] (24 h, controls 15%) worked out at 53%. In addition, in the data set with H1734 cells [5] (H1734, 20 μM Ro-31-8220), the PARP cleavage result is recorded as “cleavage of a 118-kDa PARP protein into an 87-kDa fragment”. Besides, the caspase-9 activation entry in the data set with H1734 cells [5] (H1734, 20 μM Ro-31-8220, 47-kDa to 37-kDa band) is “time-dependent activation”. The caspase-3 activation result in the data set with H1734 cells [5] (H1734, 20 μM Ro-31-8220, 24 h) was “activation of caspase-3”. For the same molecule, the “decrease in colony formation” value in the data set with H1734 cells [6] was found to be 85%. Further, in the data set on H226 cells, the “decrease in colony formation” value is 85%. Besides, in the data set on H1734 cells [7], the “cells in which apoptosis was induced (TUNEL)” value was 52%. In addition, in data set [8], the “apoptosis in U937 human leukemia cells” value was “induces apoptosis” and the “proliferation of U937 human leukemia cells” value is listed as “suppressed the proliferation”. The “autocrine growth factor interleukin-6” value in the data set on interleukin-6 is recorded as “suppress”. The “NF-kappa B-dependent transcription” value in [9] is “suppress”.
